Experimental data as given in patent publication US10881110B2, “Herbicidal compositions comprising isoxazolo[5,4-b]pyridines” (BASF SE, priority 2014, dated 2021).
Where “and” joins values, the source holds several entries; their conditions need not be identical. Equal entries are not always repeated. Where two headings read alike, the source gives them in different places.

What was measured:
Assay in all cases: greenhouse post-emergence herbicidal test
APESV = assay type: in vivo, Apera spica-venti; parameters: key to herbicidal activity against APESV found: rating on a scale from 0 to 100; settings: post emergence; for pest or weed control at 31.25 g/ha / pest or weed control at 62.5 g/ha / pest or weed control at 125 g/ha: Apera spica-venti, post-emergence, 480 h, read-out: herbicidal activity against APESV found
Method in brief: (§1)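 Test plants, sown directly or transplanted a few days earlier, are treated at 1–15 cm height with emulsified or suspended actives in water. Temperatures run 10-25° C or 20-35° C by species; injury is scored 0–100 twenty days after spraying.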

CONAR = assay type: in vivo, Convolvulus arvensis; parameters: key: rating on a scale from 0 to 100
Method in brief: as §1

ERICA = assay type: in vivo, Conyza canadensis; parameters: key to herbicidal activity against ERICA found: rating on a scale from 0 to 100; settings: post emergence
Method in brief: as §1

PANMI = assay type: in vivo, Panicum miliaceum; settings: application rate a.i.: I.1 125 g/ha, alone or as mixture (composition 1.113)
Procedure: (§2) The culture containers used were plastic pots containing medium loamy sand with approximately 4.6% of humus and 69.9% sand as substrate. The seeds of the test plants were sown separately for each species.
(§3) For the post-emergence treatment, the test plants were grown to a plant height of from 1 to 15 cm, depending on the plant habit, and only then treated with the active compounds which had been suspended or emulsified in water. To this end, the test plants were either sown directly, and grown in the same containers, or they were first grown separately as seedlings and transplanted into the test containers a few days prior to treatment.
(§4) Depending on the species, the plants were kept at 10-25° C. and 20-35° C., respectively.
(§5) The test period extended over 1 to 3 weeks. During this time, the plants were tended and their response to the individual treatments was evaluated 20 days after treatment except mentioned otherwise.
Evaluation was carried out using a scale from 0 to 100. 100 means no emergence of the plants, or complete destruction of at least the above-ground parts, and 0 means no damage or normal course of growth.
The respective stated components A and B, and, if appropriate, C, were formulated as a 10% by weight strength emulsion concentrate and, with addition of the amount of solvent system, introduced into the spray liquor used for applying the active compound. In the examples, the solvent used was water.
In the examples below, using the method of S. R. Colby (1967) “Calculating synergistic and antagonistic responses of herbicide combinations”, Weeds 15, p. 22 ff., the value E, which is expected if the activity of the individual active compounds is only additive, was calculated. E=X+Y−(X·Y/100)

SETVI = assay type: in vivo, Setaria viridis; settings: a.i. g/ha: I.1 20.8, B.192 62.5, 20 days after treatment
Procedure: as §2, §3, §4, §5
Evaluation was carried out using a scale from 0 to 100. […]
In the examples below, using the method of S. R. Colby (1967) “Calculating synergistic and antagonistic responses of herbicide combinations”, Weeds 15, p. 22 ff., the value E, which is expected if the activity of the individual active compounds is only additive, was calculated. […]

[1] = I.1 15.62 g/ha, B.95 1 g/ha a.i.
[2] = I.1 62.5 g/ha, B.95 1 g/ha a.i.
[3] = g/ha a.i.: I.1 62.5, B.52 2.5, mixture 62.5+2.5
[4] = a.i. g/ha: I.1 62.5, B.69 25, 20 days after treatment
[5] = a.i. g/ha: I.1 62.5, B.80 250, 20 days after treatment

## O=C(O)c1cc(C2CC2)nc2onc(C3CC3)c12 [I.1]
APESV; I.1 alone 31.25 g/ha a.i.
  pest or weed control at 31.25 g/ha: 0%
APESV; I.1 alone 62.5 g/ha a.i.
  pest or weed control at 62.5 g/ha: 0%
APESV; I.1 alone 125 g/ha a.i.
  pest or weed control at 125 g/ha: 0%
APESV; 31.25 g/ha a.i.
  pest or weed control at 31.25 g/ha: 0%
APESV; 62.5 g/ha a.i.
  pest or weed control at 62.5 g/ha: 0%
APESV; I.1 125 g/ha a.i.
  pest or weed control at 125 g/ha: 15%
APESV; single active, 31.25 g/ha a.i.
  pest or weed control at 31.25 g/ha: 0%
APESV; single active, 62.5 g/ha a.i.
  pest or weed control at 62.5 g/ha: 0%
APESV; single active, 125 g/ha a.i.
  pest or weed control at 125 g/ha: 0%
APESV; I.1 15.62 g/ha, B.88 1 g/ha a.i.
  herbicidal activity against APESV found: 0
APESV; [1]
  herbicidal activity against APESV found: 0
APESV; I.1 31.25 g/ha, B.88 1 g/ha a.i.
  herbicidal activity against APESV found: 0
APESV; I.1 31.25 g/ha, B.88 2 g/ha a.i.
  herbicidal activity against APESV found: 0
APESV; I.1 62.5 g/ha, B.88 1 g/ha a.i.
  herbicidal activity against APESV found: 10
APESV; I.1 62.5 g/ha, B.88 2 g/ha a.i.
  herbicidal activity against APESV found: 10
APESV; [2]
  herbicidal activity against APESV found: 10
APESV; a.i. g/ha: I.1 2.3, B.67 62.5, 20 days after treatment
  herbicidal activity against APESV found: 0%
APESV; a.i. g/ha: I.1 6.9, B.67 62.5, 20 days after treatment
  herbicidal activity against APESV found: 0%
APESV; applied alone at 31.25 g/ha a.i.
  herbicidal activity against APESV found: 0
APESV; applied alone at 125 g/ha a.i.
  herbicidal activity against APESV found: 15
APESV; g/ha a.i.: I.1 31.25, B.24 1, mixture 31.25+1
  herbicidal activity against APESV found: 20
APESV; g/ha a.i.: I.1 62.5, B.20 4, mixture 62.5+4
  herbicidal activity against APESV found: 20
APESV; [3]
  herbicidal activity against APESV found: 20
APESV; g/ha a.i.: I.1 125, B.52 2.5, mixture 125+2.5
  herbicidal activity against APESV found: 35
CONAR; 31.25 g/ha a.i.
  herbicidal activity against CONAR found: 40
CONAR; 62.5 g/ha a.i.
  herbicidal activity against CONAR found: 60
CONAR; 125 g/ha a.i.
  herbicidal activity against CONAR found: 70
CONAR; 6 days after treatment, g/ha a.i.: I.1 31.25, naptalam 50, mixture 31.25+50
  herbicidal activity against CONAR found: 5
CONAR; 6 days after treatment, g/ha a.i.: I.1 31.25, naptalam 100, mixture 31.25+100
  herbicidal activity against CONAR found: 5
CONAR; 6 days after treatment, g/ha a.i.: I.1 31.25, naptalam 200, mixture 31.25+200
  herbicidal activity against CONAR found: 5
CONAR; 6 days after treatment, g/ha a.i.: I.1 62.5, B.96 140, mixture 62.5+140
  herbicidal activity against CONAR found: 65
CONAR; 6 days after treatment, g/ha a.i.: I.1 125, naptalam 100, mixture 125+100
  herbicidal activity against CONAR found: 70
CONAR; a.i. g/ha: I.1 7.8, B.67 125, 20 days after treatment
  herbicidal activity against CONAR found: 0%
CONAR; a.i. g/ha: I.1 15.6, B.67 125, 20 days after treatment
  herbicidal activity against CONAR found: 0%
CONAR; a.i. g/ha: I.1 20.8, B.67 62.5, 20 days after treatment
  herbicidal activity against CONAR found: 0%
CONAR; a.i. g/ha: I.1 31.25, B.67 125, 20 days after treatment
  herbicidal activity against CONAR found: 0%
CONAR; a.i. g/ha: I.1 31.25, B.69 25, 20 days after treatment
  herbicidal activity against CONAR found: 70%
CONAR; a.i. g/ha: I.1 62.5, B.67 62.5, 20 days after treatment
  herbicidal activity against CONAR found: 25%
CONAR; a.i. g/ha: I.1 62.5, B.67 125, 20 days after treatment
  herbicidal activity against CONAR found: 0%
CONAR; [4]
  herbicidal activity against CONAR found: 65%
CONAR; a.i. g/ha: I.1 62.5, B.76 225, 20 days after treatment
  herbicidal activity against CONAR found: 65%
CONAR; a.i. g/ha: I.1 62.5, B.77 75, 20 days after treatment
  herbicidal activity against CONAR found: 25%
CONAR; [5]
  herbicidal activity against CONAR found: 25%
CONAR; application rate a.i.: I.1 31.25 g/ha, B.139 (pyroxasulfone) 12.5 g/ha, alone or as mixture (composition 1.139)
  herbicidal activity against CONAR found: 30
CONAR; application rate a.i.: I.1 31.25 g/ha, B.139 (pyroxasulfone) 25 g/ha, alone or as mixture (composition 1.139)
  herbicidal activity against CONAR found: 30
CONAR; application rate a.i.: I.1 62.5 g/ha, B.30 (imazamox) 3.75 g/ha, alone or as mixture (composition 1.030)
  herbicidal activity against CONAR found: 25
CONAR; application rate a.i.: I.1 62.5 g/ha, B.84 (paraquat-dichloride) 17.5 g/ha, alone or as mixture (composition 1.84)
  herbicidal activity against CONAR found: 45
CONAR; application rate a.i.: I.1 125 g/ha, B.113 (glyphosate) 33.75 g/ha, alone or as mixture (composition 1.113)
  herbicidal activity against CONAR found: 80
ERICA; Erigeron canadensis, post-emergence, 480 h, I.1 alone 31.25 g/ha a.i., read-out: herbicidal activity against ERICA found
  pest or weed control at 31.25 g/ha: 70%
ERICA; Erigeron canadensis, post-emergence, 480 h, I.1 alone 62.5 g/ha a.i., read-out: herbicidal activity against ERICA found
  pest or weed control at 62.5 g/ha: 75%
ERICA; Erigeron canadensis, post-emergence, 480 h, I.1 alone 125 g/ha a.i., read-out: herbicidal activity against ERICA found
  pest or weed control at 125 g/ha: 75%
ERICA; Erigeron canadensis, post-emergence, 480 h, I.1 31.25 g/ha a.i., read-out: herbicidal activity against ERICA found
  pest or weed control at 31.25 g/ha: 50%
ERICA; Erigeron canadensis, post-emergence, 480 h, I.1 62.5 g/ha a.i., read-out: herbicidal activity against ERICA found
  pest or weed control at 62.5 g/ha: 70%
ERICA; Erigeron canadensis, post-emergence, 480 h, I.1 125 g/ha a.i., read-out: herbicidal activity against ERICA found
  pest or weed control at 125 g/ha: 65%
ERICA; Erigeron canadensis, post-emergence, 480 h, single active, 15.62 g/ha a.i., read-out: herbicidal activity against ERICA found
  pest or weed control at 15.62 g/ha: 0%
ERICA; 6 days after treatment, g/ha a.i.: I.1 125, naptalam 50, mixture 125+50
  herbicidal activity against ERICA found: 70
ERICA; [1]
  herbicidal activity against ERICA found: 0
ERICA; I.1 15.62 g/ha, B.95 2 g/ha a.i.
  herbicidal activity against ERICA found: 0
ERICA; I.1 31.25 g/ha, B.103 15 g/ha a.i.
  herbicidal activity against ERICA found: 0
ERICA; I.1 31.25 g/ha, B.95 1 g/ha a.i.
  herbicidal activity against ERICA found: 0
ERICA; I.1 31.25 g/ha, B.95 2 g/ha a.i.
  herbicidal activity against ERICA found: 0
ERICA; I.1 62.5 g/ha, B.103 7.5 g/ha a.i.
  herbicidal activity against ERICA found: 0
ERICA; I.1 62.5 g/ha, B.103 15 g/ha a.i.
  herbicidal activity against ERICA found: 0
ERICA; I.1 62.5 g/ha, B.57 2 g/ha a.i.
  herbicidal activity against ERICA found: 10
ERICA; I.1 62.5 g/ha, B.89 25 g/ha a.i.
  herbicidal activity against ERICA found: 10
ERICA; [2]
  herbicidal activity against ERICA found: 10
ERICA; I.1 62.5 g/ha, B.95 2 g/ha a.i.
  herbicidal activity against ERICA found: 10
ERICA; a.i. g/ha: I.1 31.25, B.92 0.5, 20 days after treatment
  herbicidal activity against ERICA found: 25%
ERICA; a.i. g/ha: I.1 62.5, B.191 225, 20 days after treatment
  herbicidal activity against ERICA found: 90%
ERICA; [4]
  herbicidal activity against ERICA found: 90%
ERICA; [5]
  herbicidal activity against ERICA found: 65%
ERICA; application rate a.i.: I.1 20.8 g/ha, B.107 (topramezone) 6 g/ha, alone or as mixture (composition 1.107)
  herbicidal activity against ERICA found: 65
ERICA; application rate a.i.: I.1 31.25 g/ha, B.100 (isoxaflutole) 12.5 g/ha, alone or as mixture (composition 1.100)
  herbicidal activity against ERICA found: 25
ERICA; application rate a.i.: I.1 31.25 g/ha, B.84 (paraquat-dichloride) 17.5 g/ha, alone or as mixture (composition 1.84)
  herbicidal activity against ERICA found: 55
ERICA; application rate a.i.: I.1 62.5 g/ha, B.100 (isoxaflutole) 12.5 g/ha, alone or as mixture (composition 1.100)
  herbicidal activity against ERICA found: 75
ERICA; application rate a.i.: I.1 62.5 g/ha, B.107 (topramezone) 6 g/ha, alone or as mixture (composition 1.107)
  herbicidal activity against ERICA found: 65
ERICA; applied alone at 62.5 g/ha a.i.
  herbicidal activity against ERICA found: 75
ERICA; applied alone at 125 g/ha a.i.
  herbicidal activity against ERICA found: 75 and 65
ERICA; g/ha a.i.: I.1 31.25, B.52 2.5, mixture 31.25+2.5
  herbicidal activity against ERICA found: 0
ERICA; g/ha a.i.: I.1 31.25, B.52 5, mixture 31.25+5
  herbicidal activity against ERICA found: 0
ERICA; [3]
  herbicidal activity against ERICA found: 35
ERICA; g/ha a.i.: I.1 62.5, B.52 5, mixture 62.5+5
  herbicidal activity against ERICA found: 35
PANMI; B.113 (glyphosate) 33.75 g/ha
  herbicidal activity against PANMI, found: 60
PANMI; B.113 (glyphosate) 135 g/ha
  herbicidal activity against PANMI, found: 60
SETVI
  herbicidal activity against SETVI found: 25%
